The source of these data is paper PMC8140105 (Scientific Reports, 2021).

The subject of data set [1] is BV-2 cells. Briefly: qPCR of IL-6 mRNA. In kind it is cell-based, murine. To be noted: 10 µM, n = 6, Mann–Whitney U test. The method, then:
To confirm the observed ELISA results at mRNA level, a qPCR experiment was performed. After incubation of the BV-2 cells with PapRIV or controls, cells were lysed in RLT buffer (Qiagen, Hilden, Germany) supplemented with 1% β-mercaptoethanol. The lysate was stored at − 80 °C until RNA extraction. RNA was extracted using the RNeasy Mini Kit (Qiagen, Hilden, Germany). DNAse steps were included in the protocol to remove possible DNA contamination. RNA purity and concentration were assessed using spectrophotometry (NanoDrop), while RNA quality was evaluated using capillary electrophoresis (Fragment Analyzer). After extraction, the RNA was immediately converted to cDNA which was stored at − 20 °C until qPCR analysis. Ppia and Rer were chosen as suitable control genes based on the GeNorm and Normfinder algorithms[79],[80]. Used primers are given in Table 5. qPCR cycling was performed using a LightCycler 480 (Roche), with Cq values being calculated using the second derivative threshold method.

The nature of data set [2]: Multiple time regression (MTR) analysis, blood-to-brain influx. In kind it is in vivo, ICR-CD-1 mice. The method, then:
(§1) Briefly, 0.1 µmol of the lyophilized peptide was dissolved in 100 µL of phosphate buffer (pH 7.4, 25 mM). A Iodo-Gen coated tube (Thermo Scientific, Merelbeke, Belgium) was first of all rinsed with 1 mL of phosphate buffer. Subsequently, 50 µL of sodium iodide solution (1.1 µmol/mL) and 1 mCi of Na^125I solution (Perking Elmer, Zaventem, Belgium) were transferred into this Iodo-Gen coated tube. The oxidation reaction was allowed to proceed for six minutes at room temperature, after which the iodonium solution was transferred to 50 µL of peptide solution (1 mM). The iodination reaction of the peptide was allowed to proceed for another six minutes at room temperature. Finally, the iodinated peptide was purified using a silver filter (Thermo Scientific, Merelbeke, Belgium).
In order to determine whether the peptide could enter the brain, in vivo multiple time regression (MTR) analysis was performed. ICR-CD-1 mice were anesthetized intraperitoneally using a 40% urethane solution (3 g/kg). […] At specified time points after injection (i.e. 1, 3, 5, 10, 12.5 and 15 min, with start and end in duplicate), blood was obtained from the carotid artery followed by decapitation of the mouse. The isolated brain was weighed and radioactivity measured in a gamma counter for 5 min (Wallac Wizard automatic gamma counter, Perkin Elmer, Shelton, CT, USA), as well as from 50 µL serum, which was obtained by centrifuging the collected blood at 10,000g for 15 min at 21 °C. The linear and biphasic modeling of the multiple time regression analysis was performed as previously described.

The nature of another data set: Capillary depletion. To be noted: 125I-labelled, i.v., mice, 10 min after injection, n = 2. In kind it is in vivo, ICR-CD-1 mice. The method, then:
as §1
We performed capillary depletion to determine whether the peptides, taken up by the brain, completely crossed the capillary wall into the tissue rather than just being trapped by and in the endothelium. […] Subsequently, the brain was collected, weighed and the radioactivity measured in the gamma counter for 5 min. […] The resulting solution was weighed and centrifuged in a swinging bucket rotor at 5400g for 30 min at 4 °C, after measuring the radioactivity in the gamma counter. Pellet (capillaries) and supernatant (parenchyma and fat tissues) were also collected, weighed and measured in a gamma counter. […]

A further data set deals with BV-2 microglia cells. Briefly: ROS assay (fluorometric intracellular ROS kit). The format is cell-based, murine. To be noted: BV-2 cells, 24 h treatment, fluorescence, n = 12. The method, then:
Microglia activation is accompanied by an increased reactive oxygen species (ROS) production. The ROS assay was performed using a fluorometric intracellular ROS kit according to the supplier’s protocol (Sigma-Aldrich, Diegem, Belgium). In brief, 4 × 10^4 cells/well were seeded in a black 96-well plate. Four hours post seeding, 100 µL of master reaction mix was added to the wells and incubated for 1 h after which cells were treated with PapRIV dissolved in PBS for 24 h. Fluorescence intensity was measured using an EnVision fluorometric plate reader at λex = 492/λem = 535 nm (Perkin Elmer, Zaventem, Belgium).

Data set [3] concerns BV-2 cells. Briefly: Immunoblotting (NF-kB p65, IκBα, NIK). The format is cell-based, murine. How it is done:
To assess nuclear translocation of NF-kB, cells were lysed after 20 h using the NE-PER protocol (Thermo Scientific). Using this kit, the cytoplasmic and nuclear protein fractions are separated from each other. To asses IκBα expression, cells were lysed with RIPA buffer. Protein content of the lysates was determined using the modified Lowry assay (Thermo Scientific). Proteins (20 µg) were separated using an Any kD gel (SDS-PAGE) and transferred to a nitrocellulose membrane (BioRad, Temse, Belgium). Aspecific binding sites were blocked for 30 min using TBS + 1% casein (BioRad, Temse, Belgium). Western blot was performed using the following primary polyclonal antibodies overnight (4 °C): anti-p65 NFkB (1/500), anti-IκBα (1/1000) and anti-β-actin (1/1000), β-tubulin (1/4000) and anti-Histon H3.3 (1/5000) were used as loading controls. Goat anti-rabbit-AP antibody was used for detection (1/10,000) (60 min). All antibodies were purchased at Thermo Scientific (Merelbeke, Belgium). Finally, the BCIP/NBT substrate was added and the results were analyzed using the GelDoc EZ imager and Image Lab software (BioRad, Temse, Belgium). TBS buffer was used for washing between the steps.

Consider “SDLPFEH [PapRIV, heptapeptide (SDLPFEH) quorum sensing peptide originating from the Bacillus cereus group; synthetic, purchased from GL Biochem]”, for which the “IL-6 mRNA expression” value in the data set on BV-2 cells [1] is “increased”. Further, the K1 in data set [2] (125I-labelled, i.v. (jugular vein), mice, 1–15 min, biphasic model, mean ± standard error) came out at 6.95 ± 6.25 µL/g/min. Further, the “initial brain influx rate (Ki)” value in data set [2] (125I-labelled, i.v., mice, biphasic model) was found to be 6.95 µL/g/min. Besides, the “Tissue brain distribution volume, Vg” value in data set [2] (125I-labelled, i.v., mice, biphasic model, mean ± standard error) was 35.70 ± 61.73 µL/g. Besides, in data set [2] (classification by influx rate), the “brain influx class according to the classification system of Stalmans et al.” value is on record as “very high brain influx”. For the same substance, in “Capillary depletion”, the Capillary fraction is recorded as 13.08% and the Parenchymal fraction is recorded as 86.92%. The “intracellular ROS” value in the data set with BV-2 microglia cells was “increase”. Besides, the NF-kB nuclear translocation entry with BV-2 cells [3] (20 h, n = 3) is recorded as “increased”. The NIK expression result in the data set with BV-2 cells [3] (data not shown) is reported as “not observed”. Also, the IκBα levels result with BV-2 cells [3] (n = 3) is reported as “decreasing”.
